Measurements from US20090131354A1, “miR-126 REGULATED GENES AND PATHWAYS AS TARGETS FOR THERAPEUTIC INTERVENTION” (priority 2007, published 2009).

Test system: A549 cells
Experiment: mRNA array gene expression analysis after transfection
Format: cell-based, human

## hsa-miR-126 (UCGUACCGUGAGUAAUAAUGC; synthetic pre-miR form, further chemistry not given here) [Synthetic hsa-miR-126 (Pre-miR™-hsa-miR-126, Ambion cat. no. AM17100)]
  Δ log2 PRNP mRNA: −0.8862 log2
A549, 30 nM
  Δ log2 ABAT mRNA: 0.7144 log2
  Δ log2 ABCC1 mRNA: −1.371 log2
  Δ log2 ABHD3 mRNA: −1.85 log2
  Δ log2 ACSM3 mRNA: 1.028 log2
  Δ log2 ACTR2 mRNA: 0.8699 log2
  Δ log2 ADAM9 mRNA: −1.175 log2
  Δ log2 ADK mRNA: −1.161 log2
  Δ log2 AES mRNA: −1.21 log2
  Δ log2 AHNAK mRNA: −1.362 log2
  Δ log2 ALDH6A1 mRNA: 0.9207 log2
  Δ log2 ANG /// RNASE4 mRNA: 0.8377 log2
  Δ log2 ANKRD46 mRNA: 1.489 log2
  Δ log2 ANPEP mRNA: 1.016 log2
  Δ log2 ANTXR1 mRNA: −1.152 log2
  Δ log2 APOH mRNA: 1.465 log2
  Δ log2 APP mRNA: 0.7951 log2
  Δ log2 AQP3 mRNA: 1.683 log2
  Δ log2 ARFRP1 mRNA: −0.7079 log2
  Δ log2 ARG2 mRNA: 0.8026 log2
  Δ log2 ARHGAP11A mRNA: −0.8591 log2
  Δ log2 ARHGDIA mRNA: −1.479 log2
  Δ log2 ARID5B mRNA: 0.8176 log2
  Δ log2 ARL2BP mRNA: 0.9301 log2
  Δ log2 ARTS-1 mRNA: 0.886 log2
  Δ log2 ASNS mRNA: −0.7092 log2
  Δ log2 ATP6V0E mRNA: 1.493 log2
  Δ log2 ATP6V1D mRNA: −1.206 log2
  Δ log2 B4GALT4 mRNA: −2.01 log2
  Δ log2 B4GALT6 mRNA: −0.8145 log2
  Δ log2 BCL2A1 mRNA: −0.8657 log2
  Δ log2 BCL6 mRNA: 1.023 log2
  Δ log2 BF mRNA: 1.375 log2
  Δ log2 BHLHB2 mRNA: −0.7321 log2
  Δ log2 BTG2 mRNA: 0.7161 log2
  Δ log2 C1R mRNA: 1.372 log2
  Δ log2 C1orf121 mRNA: −1.019 log2
  Δ log2 C2orf26 mRNA: −1.688 log2
  Δ log2 C2orf33 mRNA: −1.066 log2
  Δ log2 C3 mRNA: 1.751 log2
  Δ log2 C5orf15 mRNA: −1.099 log2
  Δ log2 C6orf75 mRNA: −1.159 log2
  Δ log2 C8orf1 mRNA: −1.201 log2
  Δ log2 C8orf32 mRNA: −1.162 log2
  Δ log2 C19orf28 mRNA: −1.583 log2
  Δ log2 CA11 mRNA: 0.8832 log2
  Δ log2 CCND1 mRNA: −0.7871 log2
  Δ log2 CCNG1 mRNA: 0.7209 log2
  Δ log2 CD9 mRNA: −1.226 log2
  Δ log2 CDC37L1 mRNA: −1.198 log2
  Δ log2 CDH4 mRNA: −1.072 log2
  Δ log2 CDH17 mRNA: 1.248 log2
  Δ log2 CEACAM1 mRNA: 1.002 log2
  Δ log2 CEBPD mRNA: 0.9196 log2
  Δ log2 CFH /// CFHL1 mRNA: 0.727 log2
  Δ log2 CGI-38 mRNA: 1.152 log2
  Δ log2 CGI-48 mRNA: 1.409 log2
  Δ log2 CHGB mRNA: 2.066 log2
  Δ log2 CHST11 mRNA: −0.8983 log2
  Δ log2 CMKOR1 mRNA: −0.9537 log2
  Δ log2 COL4A1 mRNA: −1.251 log2
  Δ log2 COL4A2 mRNA: −1.104 log2
  Δ log2 COPS7A mRNA: −0.7137 log2
  Δ log2 CP mRNA: 2.115 log2
  Δ log2 CPE mRNA: 0.8454 log2
  Δ log2 CPS1 mRNA: 0.7371 log2
  Δ log2 CTDSP2 mRNA: 1.119 log2
  Δ log2 CTDSPL mRNA: 0.7348 log2
  Δ log2 CTGF mRNA: 0.7924 log2
  Δ log2 CTPS mRNA: −1.07 log2
  Δ log2 CTSS mRNA: 0.9282 log2
  Δ log2 CXCL5 mRNA: 0.8706 log2
  Δ log2 CYP3A5 mRNA: 0.8111 log2
  Δ log2 DAAM1 mRNA: 0.7598 log2
  Δ log2 DCBLD2 mRNA: −1.329 log2
  Δ log2 DCUN1D1 mRNA: −1.329 log2
  Δ log2 DDC mRNA: 1.008 log2
  Δ log2 DDX3Y mRNA: 0.738 log2
  Δ log2 DHRS2 mRNA: 1.489 log2
  Δ log2 DIO2 mRNA: −1.213 log2
  Δ log2 DIPA mRNA: −0.8054 log2
  Δ log2 DKFZP586A0522 mRNA: 1.054 log2
  Δ log2 DLG5 mRNA: −1.467 log2
  Δ log2 DNAJB9 mRNA: 0.9599 log2
  Δ log2 DPYSL3 mRNA: −0.947 log2
  Δ log2 DSU mRNA: 0.9423 log2
  Δ log2 DUSP6 mRNA: 0.7153 log2
  Δ log2 EEF1D mRNA: 0.9871 log2
  Δ log2 EFHD2 mRNA: −1.109 log2
  Δ log2 EGFR mRNA: −1.333 log2
  Δ log2 EHF mRNA: 2.017 log2
  Δ log2 EML1 mRNA: −1.062 log2
  Δ log2 ENPP4 mRNA: 0.8064 log2
  Δ log2 EPHB2 mRNA: −0.8763 log2
  Δ log2 ERBB3 mRNA: 1.041 log2
  Δ log2 EREG mRNA: −0.7398 log2
  Δ log2 F2RL1 mRNA: −0.7846 log2
  Δ log2 F5 mRNA: 1.115 log2
  Δ log2 F8A1 mRNA: −0.8485 log2
  Δ log2 FAM46A mRNA: 0.8499 log2
  Δ log2 FAS mRNA: 0.9486 log2
  Δ log2 FBXO11 mRNA: 0.8295 log2
  Δ log2 FCMD mRNA: −0.8718 log2
  Δ log2 FGB mRNA: 1.118 log2
  Δ log2 FGFR1 mRNA: −0.7031 log2
  Δ log2 FGFR4 mRNA: 0.9059 log2
  Δ log2 FGL1 mRNA: 2.076 log2
  Δ log2 FLJ11184 mRNA: −0.9264 log2
  Δ log2 FLJ13910 mRNA: 1.05 log2
  Δ log2 FLJ20364 mRNA: −1.021 log2
  Δ log2 FLJ21159 mRNA: −1.12 log2
  Δ log2 FLJ31568 mRNA: 0.732 log2
  Δ log2 FLRT3 mRNA: 1.34 log2
  Δ log2 FMO5 mRNA: 1.277 log2
  Δ log2 FOSL1 mRNA: −0.9348 log2
  Δ log2 GABRA5 mRNA: −1.612 log2
  Δ log2 GALNT4 mRNA: 1.916 log2
  Δ log2 GALNT12 mRNA: −0.8981 log2
  Δ log2 GART mRNA: −1.022 log2
  Δ log2 GATM mRNA: 1.127 log2
  Δ log2 GCH1 mRNA: 0.9389 log2
  Δ log2 GLI2 mRNA: −0.8678 log2
  Δ log2 GLT25D1 mRNA: −1.17 log2
  Δ log2 GLUL mRNA: 0.734 log2
  Δ log2 GNA13 mRNA: 0.7394 log2
  Δ log2 GPR64 mRNA: −1.209 log2
  Δ log2 GREM1 mRNA: −1.049 log2
  Δ log2 GTF2B mRNA: −0.9795 log2
  Δ log2 GTSE1 mRNA: −0.7712 log2
  Δ log2 H2AFY mRNA: −0.841 log2
  Δ log2 H3F3B mRNA: −1.391 log2
  Δ log2 HERC4 mRNA: −1.409 log2
  Δ log2 HES1 mRNA: 0.8154 log2
  Δ log2 HIPK3 mRNA: 0.8255 log2
  Δ log2 HKDC1 mRNA: −0.8911 log2
  Δ log2 HLA-DMA mRNA: 1.267 log2
  Δ log2 HLA-DMB mRNA: 1.253 log2
  Δ log2 HMGA1 mRNA: −0.8703 log2
  Δ log2 IER3IP1 mRNA: 1.015 log2
  Δ log2 IFI16 mRNA: 0.7014 log2
  Δ log2 IFIT1 mRNA: 0.766 log2
  Δ log2 IL6R mRNA: 1.8 log2
  Δ log2 IL6ST mRNA: 0.7356 log2
  Δ log2 IL11 mRNA: −1.98 log2
  Δ log2 ILK mRNA: −1.193 log2
  Δ log2 INHBC mRNA: 0.988 log2
  Δ log2 ITGAV mRNA: −1.397 log2
  Δ log2 ITGB4 mRNA: −1.084 log2
  Δ log2 IVNS1ABP mRNA: −1.126 log2
  Δ log2 JUN mRNA: −1.257 log2
  Δ log2 KCNJ2 mRNA: 0.9432 log2
  Δ log2 KCNJ16 mRNA: 0.8637 log2
  Δ log2 KCNK5 mRNA: 0.9088 log2
  Δ log2 KCTD9 mRNA: −1.102 log2
  Δ log2 KIAA0152 mRNA: −1.121 log2
  Δ log2 KIAA0317 mRNA: −0.9984 log2
  Δ log2 KIAA0882 mRNA: 0.7061 log2
  Δ log2 KLC2 mRNA: −1.308 log2
  Δ log2 KLF4 mRNA: −1.01 log2
  Δ log2 LARP6 mRNA: −1.273 log2
